From a melting point compilation (Tetko et al.)

Row | SMILES | melting point [°C]
1 | O=Cc1ccccc1N1CCN(c2ccc(C(F)(F)F)cn2)CC1 | 106 to 107
2 | Cc1cc(C)n(CN(Cc2ccccc2)Cn2nc(C)cc2C)n1 | 71
3 | O=C1Cc2cc([N+](=O)[O-])ccc21 | 76
4 | CC1=CCC2CC1C2(C)C (racemic) | -55
5 | CC(C)=NOCCOC(=O)C(C)Oc1ccc(Oc2cnc3cc(Cl)ccc3n2)cc1 (centres undefined) | 66.3
6 | COc1c(OC)c(OC(C)=O)c2c(C#N)cccc2c1OC(C)=O | 152
7 | CC1C(c2ccc(Cl)cc2)SC(=O)N1C(=O)NC1CCCCC1 (centres undefined) | 108
8 | COc1cc2c(cc1OC)C(c1ccccc1)=NCC2 | 121 to 125
9 | OC1Cc2cccc3cccc1c23 (centres undefined) | 148
10 | O=C1OC(=O)c2c1cccc2[N+](=O)[O-] | 160 to 165
11 | O=c1[nH]c(=O)n(C2CC(O)C(CO)O2)cc1I (centres undefined) | 263
12 | CCC=C(c1ccccc1)c1ccccc1 | -1
13 | CC(C)(C)c1csc(N)n1 | 101
14 | Clc1ccc(Br)cn1 | 70
15 | CCCCCCCCCCCCN1CCCCCC1=O | -7
16 | COc1ccc2c(c1C)CC2C#N (centres undefined) | 80
17 | OCc1ccc(F)cc1Cl | 44.5
18 | CN(CCOc1ccc(CC2SC(=O)NC2=O)cc1)c1ccccn1 (centres undefined) | 122
19 | C=C1c2cc(OC)c(OC)cc2CCN1C(C)=O | 107 to 109
20 | Cc1nc(-c2ccncc2)sc1C(=O)O | 305
21 | CNC(=O)ON=CC(C)(C)S(C)(=O)=O | 141
22 | O=C(Cl)c1cccnc1Cl | 40
23 | CCCCCCCCCCCCCC#N | 19
24 | FC(F)(F)c1ccccc1CCc1ccccc1C(F)(F)F | 75
25 | COC(=O)C(NC(=O)OCc1ccccc1)P(=O)(OC)OC (centres undefined) | 78
26 | CS(=O)(=O)c1ccc(-c2cn3ccccc3n2)cc1 | 242

Row | SMILES | melting point [°C]
27 | O=C1c2ccccc2C(=O)N1c1ccc(Cl)cc1 | 197
28 | CCC(=O)C(=O)CC | -10
29 | O=C1C=C(NCCc2ccccc2)C(=O)c2ccccc21 | 141
30 | NS(=O)(=O)c1ccc(SCCO)c([N+](=O)[O-])c1 | 151
31 | Cc1cccc(NC(=O)C(F)(F)C(F)(F)C(F)(F)C(F)(F)C(F)(F)C(F)(F)C(F)(F)C(F)(F)F)c1 | 97
32 | CCC(C1CCc2cc(O)ccc2C1)C(C)(C)C(=O)O (centres undefined) | 163
33 | Nc1ccc(CN2CCOCC2)cc1 | 99 to 100
34 | O=C(O)CC1C=CCC1 (centres undefined) | 19
35 | O=C(O)c1cccnc1Sc1ccccc1 | 165 to 167
36 | CCN(CC)C(=O)c1ccccc1 | 30
37 | Cc1cc(Cl)cc(Cl)c1N=C=S | 57 to 58
38 | CCC(=O)Nc1ccc(Cl)c(Cl)c1 | 92
39 | C=Cc1ccccc1 | -31
40 | CO[C@]12C(=O)CCc3cccc(c31)Oc1ccc3ccccc3c12 | 154
41 | O=C(OCc1ccccc1)c1cccnc1 | 22
42 | CNc1ncc(C(F)(F)F)cc1[N+](=O)[O-] | 98 to 100
43 | CCCCCCCCOc1ccc(C(=O)OC)cc1 | 35
44 | CCOC(=O)c1nnsc1N | 124
45 | CC(=O)c1cc(C)cc([N+](=O)[O-])c1O | 135
46 | O=C(O)C(O)C(O)C(OC1OC(CO)C(O)C(O)C1O)C(O)CO (centres undefined) | 113 to 118
47 | Cc1ncccc1O | 168
48 | CCCCCCCl | -94
49 | CCCOC(=O)C1=C(C)NC(C)=C(C(=O)OCCC)C1c1ccco1 | 112
50 | NC(=O)Cc1nc(-c2ccccc2)cs1 | 193 to 194
51 | CCCCCCCCCCCCCCCCCCCCCCCC(=O)O | 84.2
52 | CNC1CC2OC(C)(C1OC)n1c3ccccc3c3c4c(c5c6ccccc6n2c5c31)C(=O)NC4 (centres undefined) | 270

Row | SMILES | melting point [°C]
53 | CNc1c(C=O)c(=O)oc2ccccc12 | 215 to 216
54 | c1ccc2c(c1)OCCOCCOCCOCCOCCO2 | 40 to 45
55 | C=C1C(=O)C23C(OC(C)=O)CC4C(C)(C)CCC(OC(C)=O)C4(C)C2C(OC(C)=O)CC1C3OC(C)=O (centres undefined) | 277
56 | N#Cc1ccc([N+](=O)[O-])cc1C#N | 140 to 144
57 | Cc1cc(C)c(O)cc1O | 126
58 | COc1ccc(-n2ncc(C(=O)Cl)c2C)cc1 | 86
59 | COC(=O)C1C2(C)C=CC(O2)C1(OC)OC (centres undefined) | 60 to 62
60 | OC(c1ccc(Cl)cc1)c1ccc(Cl)cc1 | 92
61 | CC(C)c1cc(C(C)C)c(-c2ccccc2P(C2CCCCC2)C2CCCCC2)c(C(C)C)c1 | 185
62 | O=C(O)CN1C(=O)CSC1=S | 147
63 | O=Cc1ccc(O)c(Br)c1 | 127
64 | Cc1ccc(C(=O)C=Cc2ccc(-c3ccccc3)o2)o1 | 122 to 123
65 | Nc1ccc(/C=C\c2ccc(N)cc2)cc1 | 121
66 | CSC(SC)=C(C#N)S(=O)(=O)C(C)C | 88 to 91
67 | CN(C)C(c1ccccc1)c1ccccc1 | 69
68 | O=C(O)c1cc(=O)[nH]c(=O)[nH]1 | 345
69 | CCOC(=O)C(C#N)=C(N)c1cc2cc(Br)cc(OC)c2oc1=O | 274 to 276
70 | O=c1cnn(C2OC(CO)C(O)C2O)c(=O)[nH]1 (centres undefined) | 158
71 | O=S(=O)(N(c1ccccc1)S(=O)(=O)C(F)(F)F)C(F)(F)F | 99 to 105
72 | CC1=C2C3OC(=O)C(C)C3C(O)CC2(C)C=CC1=O (centres undefined) | 203
73 | O=C(O)c1cc(C(F)(F)F)ccc1C(F)(F)F | 79
74 | CC(C)CCSCCC(C)C | -74.6
75 | COC(=O)C(c1ccccc1Cl)N1CCc2sccc2C1 (centres undefined) | 158
76 | CCC(C)OC(=O)C1=C2c3ncccc3ON2C(Cl)C(Cl)C1Cl (centres undefined) | 97
77 | O=C(O)C1(C(=O)O)CC1 | 134 to 138
78 | CC(C(=O)O)=C(c1ccccc1)c1ccccc1 | 163

Row | SMILES | melting point [°C]
79 | CC1(C)CC2(CC(C)(C)c3cc(O)c(O)cc32)c2cc(O)c(O)cc21 | 300
80 | Cc1ccc([N+](=O)[O-])c(C)n1 | 32 to 38
81 | N#CCC[Si](Cl)(Cl)Cl | 33 to 34
82 | Cc1ncsc1C(=O)O | 254 to 255
83 | CC1=NN(c2ccccc2)C(=O)C1C(=O)C(F)(F)F (centres undefined) | 143
84 | ClCc1nc(-c2ccc(OCc3ccc(Cl)cc3)cc2)no1 | 118
85 | Nc1c(O)cccc1C(=O)O | 240
86 | COc1ccc(N2C(=O)C3ON=C(C(=O)c4ccc(C)cc4)C3C2=O)cc1 (centres undefined) | 126
87 | Cc1cc(Br)cnc1NC(=O)C(C)(C)C | 127
88 | CC(O)c1cccc(N)c1 (centres undefined) | 68
89 | Cc1cc(C)c(C=O)c(C)c1 | 14
90 | Sc1ccc(S)cc1 | 97
91 | C=C1CC1CC(N)C(=O)O (centres undefined) | 282
92 | CCC(O)c1cc(C)ccc1O (centres undefined) | 143
93 | O=C(Cl)c1ccc(-c2ccco2)cc1 | 101 to 103
94 | N#Cc1ccnc(Cl)c1 | 71 to 72
95 | COc1ccc2nc(Cl)c(CO)cc2c1 | 133
96 | O=C(O)/C=C/c1cccc2c(Br)ccc([N+](=O)[O-])c12 | 141 to 142
97 | Cc1cc(C(C)(C)C)cc(C(C)(C)C)c1 | 32
98 | COC(=O)c1ccc2c(c1)CC1(CCC(c3ccc(C(C)(C)C)cc3)CC1)C2 (centres undefined) | 118
99 | O=CC12CC=CCC1C1CC=CCC1O2 (centres undefined) | -80
100 | O=C(O)CN(CCO)CC(=O)O | 178
101 | C1CCC(OC2CCCCC2)CC1 | -36
102 | Cc1[nH]c(=O)n(C(C)C)c(=O)c1Br | 158
103 | CC(C)CCOC(=O)c1cc([N+](=O)[O-])cc([N+](=O)[O-])c1 | 61
104 | O=C(O)c1cc2ccccc2c2ccccc12 | 253

Row | SMILES | melting point [°C]
105 | C#CC1(O)CCC2(C)C3CCC4(C)C(=O)CCC4C3CCC2(C)C1 (centres undefined) | 238
106 | N#Cc1c(-c2cccs2)cc(-c2ccco2)[nH]c1=O | 318 to 320
107 | COC(=O)c1ccccc1CC#N | 48
108 | COc1ccc2c(c1)N(CCCN(C)C)c1ccccc1S2 | 46
109 | COC(=O)c1cc(S(=O)(=O)Cl)oc1C | 35 to 38
110 | O=Cc1cccc2c1OCC2 | 54 to 55
111 | NC(=O)C1CCNCC1 | 148
112 | CCCCCCCCCC(=O)CCC | 19
113 | OCc1cc(Cl)ccc1Cl | 78
114 | Cc1cc(C)c(CCl)cc1CCl | 97 to 99
115 | Cn1nc(-c2ccco2)cc1CO | 83 to 85
116 | OC1OC(COCc2ccccc2)C(OCc2ccccc2)C(OCc2ccccc2)C1OCc1ccccc1 (centres undefined) | 152
117 | Cc1cc(C)c(CC(=NOCC(=O)O)c2cc3ccccc3o2)c(C)c1 | 143 to 144
118 | O=C(C(=O)c1ccc2c3c(cccc13)CC2)c1ccccc1 | 148
119 | Cc1ccc(C=C(Oc2cccc(C)c2)c2nc3ccccc3s2)cc1 | 137 to 139
120 | Cc1cc(C)c(NC(=O)C(F)(F)C(F)(F)C(F)(F)C(F)(F)C(F)(F)C(F)(F)C(F)(F)C(F)(F)F)c(C)c1 | 63
121 | N#Cc1c(F)cccc1OCC(F)(F)F | 88 to 90
122 | Cc1ccc(S(=O)(=O)CCCl)cc1 | 77 to 78
123 | CC(=O)Cc1ccccc1 | -15
124 | CCC(O)C(CC(C)N(C)C)(c1ccccc1)c1ccccc1 (centres undefined) | 127
125 | OCCC1CCCCN1 (centres undefined) | 69
126 | CC1OC(OC2CCC3(C=O)C4CCC5(C)C(C6=CC(=O)OC6)CCC5(O)C4CCC3(O)C2)C(O)C(O)C1O (centres undefined) | 238
127 | O=[N+]([O-])c1ccc2c(c1)NCC2 | 68
128 | O=[N+]([O-])c1ccc(C2Nn3c(nnc3-c3cccc([N+](=O)[O-])c3)S2)cc1 (centres undefined) | 205
129 | O=C(Cl)c1ccc(OC2CCOCC2)cc1 | 37.5 to 39
